Source: patent US20190330142A1, “INHIBITORS OF MTOR-DEPTOR INTERACTIONS AND METHODS OF USE THEREOF” (The Regents of the University of California, priority 2016, published 2019)
Entries after “also recorded” stand apart in the source; their conditions may differ. Like-named read-outs stand apart in the source and are kept apart here.

Columns and labels:
[1] = system: MM1.S MM cell line; assay: MTT cytotoxicity assay, MM1.S cells; assay type: cell-based; conditions: Homo sapiens, 48 hr
Experimental: The MTT assay was performed by seeding 1-2×10^4 target cells in 0.1 ml of complete media into wells of a 96 well microtiter plate. After incubation with compounds, the reduction of MTT to formazan by live cells was determined with a microplate ELISA reader equipped with a 570 nm filter. Quadruplicate wells were run for each group and the SD of each group was always <5% of the mean.

[2] = system: 8226 MM cell line; assay: MTT cytotoxicity assay, 8226 MM cells; conditions: for IC50: 48 h; for anti-MM cytotoxicity in MTT assay compared to parent B: 48 hr MTT
Experimental: In mTORC1, mTOR phosphorylates the p70S6 kinase. Thus, a Western blot was used to test for induction of p70 phosphorylation in this secondary screen. Compounds were tested at 0.5, 1, and 2 uM with 6 hrs in vitro exposure. […] A summary of the p70 phosphorylation data from 4 separate experiments where derivatives were used at 0.5 uM, is shown in FIG. 3B. These first 8 derivatives were also screened for cytotoxicity against the same 8226 MM cell line in 48 hr MTT assays.
P70 phosphorylation was measured in 8226 cells treated for 6 hrs. […] The structures and biological activity of all derivatives are shown in Tables 1-4, categorized by structural modification.
The MTT assay was performed by seeding 1-2×10^4 target cells in 0.1 ml of complete media into wells of a 96 well microtiter plate. After incubation with compounds, the reduction of MTT to formazan by live cells was determined with a microplate ELISA reader equipped with a 570 nm filter.
The induction of p70 phosphorylation by derivative compounds was determined by densitometry, comparing immunoblot signals of phosphorylated p70 vs total p70. This ratio was then compared to that resulting from parental compound B, with the latter ratio arbitrarily placed at ‘1’. The IC50 for MTT cytotoxicity was determined using a range of concentrations of derivatives. Percent apoptosis was enumerated by flow cytometry in drug-treated cultures by subtracting control apoptosis determined from DMSO-treated cultures.

[3] = system: p70 phosphorylation (mTORC1 activity) in 8226 cells; assay: p70 phosphorylation Western blot (TORC1 activity) in 8226 cells; assay type: cell-based; conditions: for p70 phosphorylation vs the parent B / induction of p70 phosphorylation: 6 hrs; for p70 phosphorylation vs the parent B: compound B arbitrarily 1
Experimental: In mTORC1, mTOR phosphorylates the p70S6 kinase.
The 8226 and MM1.S myeloma cell lines were purchased from ATCC. The cell lines were characterized by FISH analysis and shown to contain MAF/Ig translocations. Western blot confirmed a significant over-expression of DEPTOR protein. Both lines were tested for mycoplasma within the last 6 months and were negative. Western blot assay—Protein was extracted and separated by 12.5% SDS-PAGE as previously described (see new ref below). Proteins were transferred to polyvinylidene difluoride membranes and their expression was detected utilizing specific antibodies purchased from Cell Signaling (Beverly, Mass.).

[4] = 8226 cells, 0.5 uM, compared to compound B
[5] = read-out: MTT (IC50, uM) 8226, 48 hr

| Structure (SMILES) | IC50 [1] [µM] | IC50 ([2]; read-out: MTT (IC50, uM) 8226) [µM] | p70 phosphorylation vs the parent B ([3]; 8226 cells, 0.5 uM) | anti-MM cytotoxicity in MTT assay compared to parent B [2] | induction of p70 phosphorylation [3, 4] | IC50 [2, 5] [µM] | toxicity to 8226 cells in p70 experiment ([3]; 0.5 uM) | enhancement of p70 phosphorylation ([3]; 8226 cells, 0.05-0.2 uM) | induction of p70 phosphorylation ([3]; 8226 cells, 1 or 2 uM) |
| --- | --- | --- | --- | --- | --- | --- | --- | --- | --- |
| ClC1=C(Cl)C(Cl)=C(Cl)C1=NNC1CCCCC1 [3b, 1-Cyclohexyl-2-(perchlorocyclopenta-2,4-dien-1-ylidene)hydrazine] | > 3 | > 3 | no increase | – | – | – | – | – | – |
| ClC1=C(Cl)C(Cl)=C(Cl)C1=NNc1ccccc1 [3d, 1-(Perchlorocyclopenta-2,4-dien-1-ylidene)-2-phenylhydrazine] | 2 | 0.6 | – | lower IC50s; also recorded: enhanced cytotoxic effects | – | – | – | – | – |
| Fc1cccc(NN=C2C(Cl)=C(Cl)C(Cl)=C2Cl)c1 [3e, 1-(3-Fluorophenyl)-2-(perchlorocyclopenta-2,4-dien-1-ylidene)hydrazine] | 1.5 | 0.5 | – | lower IC50s; also recorded: enhanced cytotoxic effects | – | – | – | – | – |
| ClC1=C(Cl)C(Cl)=C(Cl)C1=NNc1cc(Cl)cc(Cl)c1 [3f, 1-(3,5-dichlorophenyl)-2-(perchlorocyclopenta-2,4-dien-1-ylidene)hydrazine] | 2 | 0.8 | – | lower IC50s; also recorded: enhanced cytotoxic effects | – | – | – | – | – |
| Cc1cccc(NN=C2C(Cl)=C(Cl)C(Cl)=C2Cl)c1 [3h, 1-(Perchlorocyclopenta-2,4-dien-1-ylidene)-2-(m-tolyl)hydrazine] | > 3 | 2 | no increase | – | – | – | – | – | – |
| COc1cccc(NN=C2C(Cl)=C(Cl)C(Cl)=C2Cl)c1 [3i, 1-(3-Methoxyphenyl)-2-(perchlorocyclopenta-2,4-dien-1-ylidene)hydrazine] | > 3 | > 3 | no increase | – | – | – | – | – | – |
| Fc1ccccc1NN=C1C(Cl)=C(Cl)C(Cl)=C1Cl [3j, 1-(2-Fluorophenyl)-2-(perchlorocyclopenta-2,4-dien-1-ylidene)hydrazine] | > 3 | > 3 | no increase | – | no activity | – | – | – | – |
| ClC1=C(Cl)C(Cl)=C(Cl)C1=NN(c1ccccc1)c1ccccc1 [3l, 2-(Perchlorocyclopenta-2,4-dien-1-ylidene)-1,1-diphenylhydrazine] | > 3 | > 3 | no increase | – | – | – | – | – | – |
| CC(=O)NN=C1C(Cl)=C(Cl)C(Cl)=C1Cl [4c, N′-(Perchlorocyclopenta-2,4-dien-1-ylidene)acetohydrazide] | – | 1 | no increase | – | no increase | – | – | – | – |
| Cc1ccc(C(=O)N(N=C2C(Cl)=C(Cl)C(Cl)=C2Cl)C(=O)c2ccc(C)cc2)cc1 [4f, 4-Methyl-N-(4-methylbenzoyl)-N′-(perchlorocyclopenta-2,4-dien-1-ylidene)benzohydrazide] | 0.5 | 0.5 | – | enhanced cytotoxic effects | – | – | – | – | – |
| C#CC(C)(C)OC(=O)NN=C1C(Cl)=C(Cl)C(Cl)=C1Cl [4i, 2-Methylbut-3-yn-2-yl 2-(perchlorocyclopenta-2,4-dien-1-ylidene)hydrazine-1-carboxylate] | – | > 5 | – | – | minimal increase | – | – | – | – |
| NN=C1c2ccccc2-c2ccccc21 [6a, (9H-Fluoren-9-ylidene)hydrazine] | – | > 5 | no increase | did not show any improvement | did not show any improvement | – | – | – | – |
| NN=c1c2ccccc2oc2ccccc12 [6b, (9H-Xanthen-9-ylidene)hydrazine] | > 5 | > 5 | no increase | did not show any improvement | did not show any improvement | – | – | – | – |
| Fc1cccc(NN=C2c3ccccc3-c3ccccc32)c1 [6d, 1-(9H-Fluoren-9-ylidene)-2-(3-fluorophenyl)hydrazine] | > 5 | > 5 | no increase | did not show any activity | did not show any activity | – | – | – | – |
| CC(C)(C)OC(=O)NN=C1c2ccccc2-c2ccccc21 [6e, tert-Butyl 2-(9H-fluoren-9-ylidene)hydrazine-1-carboxylate] | > 5 | > 5 | no increase | did not show any activity | did not show any activity | – | – | – | – |
| ON=C1C(Cl)=C(Cl)C(Cl)=C1Cl [7a, 2,3,4,5-Tetrachlorocyclopenta-2,4-dien-1-one oxime] | – | – | no increase | poor activity | poor activity | > 5 | – | – | – |
| COC1(OC)C(Cl)=C(Cl)C(Cl)=C1Cl [7b, 1,2,3,4-Tetrachloro-5,5-dimethoxycyclopenta-1,3-diene] | – | – | no increase | poor activity | poor activity | > 5 | – | – | – |
| CN(C)N=C1C(Cl)=C(Cl)C(Cl)=C1Cl [compound 3a, 1,1-Dimethyl-2-(perchlorocyclopenta-2,4-dien-1-ylidene)hydrazine] | > 3 | > 3 | no increase | – | – | – | – | – | – |
| CC(C)(C)NN=C1C(Cl)=C(Cl)C(Cl)=C1Cl [compound 3c, 1-(tert-Butyl)-2-(perchlorocyclopenta-2,4-dien-1-ylidene)hydrazine] | > 3 | > 3 | no increase | – | only modest activity | – | – | – | – |
| O=C(NN=C1C(Cl)=C(Cl)C(Cl)=C1Cl)c1ccccc1 [compound 4a, N′-(Perchlorocyclopenta-2,4-dien-1-ylidene)benzohydrazide] | 0.8 | 0.6 | – | enhanced cytotoxic effects | – | – | considerable cell death | no enhancement of p70 phosphorylation | toxic and showed degradation of p70 |
| O=C(c1ccccc1)N(N=C1C(Cl)=C(Cl)C(Cl)=C1Cl)C(=O)c1ccccc1 [compound 4b, N-Benzoyl-N′-(perchlorocyclopenta-2,4-dien-1-ylidene)benzohydrazide] | 2 | 0.8 | – | lower IC50s; also recorded: enhanced cytotoxic effects | more effective than the parent compound B | – | – | – | – |
| C#CCOC(=O)NN=C1C(Cl)=C(Cl)C(Cl)=C1Cl [compound 4h, Prop-2-yn-1-yl 2-(perchlorocyclopenta-2,4-dien-1-ylidene)hydrazine-1-carboxylate] | – | 0.8 | – | some cytotoxicity; also recorded: enhanced cytotoxic effects | minimal increase | – | – | – | – |
